{"source": "patent US20250188065A1", "about": "“LIGHT-CONTROLLED BIOORTHOGONAL TETRAZINE LIGATION” (The Regents of the University Of California, priority 2020, published 2025)", "key": {"[1]": {"test_system": "Hep 3B human liver cancer cells", "assay": "Cell viability after light-activated tetrazine prodrug therapy", "format": "cell-based", "conditions": "for influence on cell viability, agent alone: 1a 8 μM or TCO-Dox 3c 5.5 μM alone; for influence on cell viability, agent alone with irradiation: LED light 2 minutes, 1a 8 μM, TCO-Dox 3c 5.5 μM or side product 4c 5.5 μM alone", "description": "FIGS. 5A-5B. Light-activated tetrazine prodrug therapy in Hep 3B cancer cells. FIG. 5A: Application of light-controlled tetrazine ligation to release the chemotherapeutic doxorubicin in the presence of living Hep 3B cancer cells. Dox, doxorubicin. FIG. 5B: Cell viability of Hep 3B cancer cells after treatments with photocaged dihydrotetrazine 1a (8 μM), TCO-Dox 3c (5.5 μM), side product 4c (5.5 μM), and Dox 5a (5.5 μM) with or without irradiation by LED light (405 nm, 18 W) for 2 minutes, followed by incubation at 37° C. for 24 hours. Error bars indicate standard error of mean (SEM), which are measured from 3 replicates. Statistically significant differences in cell viability between no treatment and other means are indicated: **P<0.01. ns, not significant.\nBased on the positive dual activation results obtained from the in vitro experiments, we next tested if light-triggered tetrazine ligation enabled prodrug therapy could be carried out in the presence of live cancer cells (FIG. 5B). […] Loss of cell viability was similar to that observed when cells were directly treated with Dox […] (5.5 μM) under the same conditions.\nBased on the positive results obtained, we tested whether light-triggered drug delivery could be carried out in the presence of living cancer cells (FIG. 5B). […] However, upon irradiation with LED light (405 nm, 18W) for 2 minutes, followed by incubation for 24 hours, a 75.1±3% reduction of cell viability was observed. The loss of cell viability was similar to that observed when cells were directly treated with Dox 5a (5.5 μM) under the same conditions."}, "[2]": {"assay": "Stability in 4-methylpiperidine/DMF solution (Fmoc deprotection conditions)", "format": "physicochemical", "source_text": "Although tetrazine ligation is a widely used bioorthogonal tool, tetrazine-containing amino acid has been rarely explored in the solid-phase peptide synthesis (SPPS) due to dramatic degradations of tetrazines under the protection conditions, such as 4-methylpiperidine/DMF solution. Markedly, photocaged dihydrotetrazine 1a proves to be stable in the presence of 4-methylpiperidine/DMF solution, so that we were able to employ photocaged dihydrotetrazine-containing amino acid in SPPS and obtained the desired tetrazine-containing peptide in the late stage. Here we have synthesized unnatural amino acid photocaged dihydrotetrazine-lysine 1b (12 mg, 15 μmol) and obtained a five-amino-acid peptide 1c through practical SPPS in 49% yield (FIG. 3A). After irradiation of dihydrotetrazine-peptide 1c (10 μM) for 2 minutes in PBS at 37° C., tetrazine-peptide 2c could been readily achieved, which contains two common bioorthogonal groups, including an azido group and a tetrazine group.\nConsidering the stability of photocaged dihydrotetrazines, we asked if such groups could act as photoprotection moieties, masking latent tetrazines through harsh conditions that would normally be degradative. For example, in 4-methylpiperidine/DMF solution, 40% of tetrazine 2a degrades in 30 minutes. […] Therefore, we hypothesized that photocaged dihydrotetrazines would be tolerated during SPPS. […]"}, "[3]": {"assay": "Stability of photocaged dihydrotetrazine in aqueous solution / PBS / cell lysate without irradiation", "format": "physicochemical", "conditions": "absence of irradiation, 37° C.", "source_text": "We initiated our studies by synthesizing photocaged dihydrotetrazines 1. Ideally, photocaged dihydrotetrazine 1 should be stable in aqueous solution and the uncaged dihydrotetrazine should rapidly air oxidize to tetrazine 2. With these criteria in mind, we chose 3-(but-3-yn-1-yl)-6-phenyl-[…]1,2,4,5-tetrazine as a model building block, which we reduced to the corresponding dihydrotetrazine. We decided to include a terminal alkyne so that the photocaged dihydrotetrazine could be conjugated to functional molecules by copper-catalyzed azide-alkyne cycloaddition. For the photocleavable protecting group, we decided to utilize 1-(2-nitrophenyl)ethyl carbamate, due to its sensitivity to visible light, and its previous use in cellular studies. […] In the absence of irradiation, 1a is stable in aqueous solution at 37° C. with open air for over 4 days. Having photocaged dihydrotetrazines 1 in hand, we next characterized product formation after visible light triggered decaging (FIG. 2A). […] The resulting dihydrotetrazine intermediate is spontaneously oxidized by air, generating the desired 3-(but-3-yn-1-yl)-6-phenyl-1,2,4,5-tetrazine 2a.\nA photocaged dihydrotetrazine should be stable in aqueous solution and the dihydrotetrazine should rapidly be oxidized to tetrazine by air. With this hypothesis in mind, we synthesized photocaged dihydrotetrazine 1a from 3-(but-3-yn-1-yl)-6-phenyl-1,2,4,5-tetrazine, which could be converted to the corresponding dihydrotetrazine using the reductant thiourea dioxide (FIG. 1B). 1-(2-Nitrophenyl)ethyl carbamate was investigated as the photocleavable functional group, due to its sensitivity to visible blue light (28) and biocompatibility (29). […] We analyzed light-triggered tetrazine formation from photocaged dihydrotetrazine 1a (FIGS. 2A-2B). […] We measured a second-order rate constant of 101±3 M^−1 s^−1 between 2a and a model strained dienophile, trans-4-cycloocten-1-ol (TCO-OH), by monitoring the disappearance of the characteristic tetrazine visible absorption at 521 nm under pseudo first-order conditions (13)."}, "[4]": {"assay": "Second-order rate constant of tetrazine ligation with strained dienophile", "conditions": "with TCO-OH; disappearance of tetrazine absorption at 521 nm, pseudo first-order conditions", "source_text": "A photocaged dihydrotetrazine should be stable in aqueous solution and the dihydrotetrazine should rapidly be oxidized to tetrazine by air. With this hypothesis in mind, we synthesized photocaged dihydrotetrazine 1a from 3-(but-3-yn-1-yl)-6-phenyl-1,2,4,5-tetrazine, which could be converted to the corresponding dihydrotetrazine using the reductant thiourea dioxide (FIG. 1B). 1-(2-Nitrophenyl)ethyl carbamate was investigated as the photocleavable functional group, due to its sensitivity to visible blue light (28) and biocompatibility (29). After reacting the dihydrotetrazine intermediate with the selected photocleavable group, the desired product 1-(2-nitrophenyl)ethyl 6-(but-3-yn-1-yl)-3-phenyl-1,2,4,5-tetrazine-1(4H)-carboxylate photocaged dihydrotetrazine 1a was obtained. Nuclear magnetic resonance (NMR) studies confirmed that the secondary amine adjacent to the alkyl group of dihydrotetrazine 1a is functionalized. We analyzed light-triggered tetrazine formation from photocaged dihydrotetrazine 1a (FIGS. 2A-2B). […] We measured a second-order rate constant of 101±3 M^−1 s^−1 between 2a and a model strained dienophile, trans-4-cycloocten-1-ol (TCO-OH), by monitoring the disappearance of the characteristic tetrazine visible absorption at 521 nm under pseudo first-order conditions (13)."}}, "note": "“Also recorded” adds a separate entry of the source.", "data": [{"smiles": "C#CCCC1=NNC(c2ccccc2)=NN1C(=O)OC(C)c1ccccc1[N+](=O)[O-]", "note": "(centres unmarked) [1a, 1-(2-nitrophenyl)ethyl 6-(but-3-yn-1-yl)-3-phenyl-1,2,4,5-tetrazine-1(4H)-carboxylate]", "values": [{"measurement": "influence on cell viability, agent alone", "setting": "[1]", "value": "no influence on cell viability"}, {"measurement": "influence on cell viability, agent alone with irradiation", "setting": "[1]", "value": "no influence on cell viability"}, {"measurement": "stability in 4-methylpiperidine/DMF solution", "setting": "[2]; 4-methylpiperidine/DMF solution", "value": "stable; also recorded: no detectable degradation"}, {"measurement": "stable in aqueous solution (time)", "setting": "[3]; open air", "value": "over 4 days"}, {"measurement": "decomposition after 4 days of incubation", "setting": "[3]; PBS or cell lysate", "value": "less than 1%"}, {"measurement": "degradation over 1 day", "setting": "[3]; PBS or cell lysate", "value": "not observed"}]}, {"smiles": "C#CCCc1nnc(-c2ccccc2)nn1", "note": "[2a, 3-(but-3-yn-1-yl)-6-phenyl-1,2,4,5-tetrazine]", "values": [{"measurement": "degradation in 4-methylpiperidine/DMF solution", "setting": "[2]; 30 minutes", "value": 40, "unit": "%"}, {"measurement": "second-order rate constant", "setting": "[4]", "value": "101 ± 3", "unit": "M⁻¹ s⁻¹"}]}, {"smiles": "COc1cccc2c1C(=O)c1c(O)c3c(c(O)c1C2=O)C[C@@](O)(C(=O)CO)C[C@@H]3O[C@H]1C[C@H](N)[C@H](O)[C@H](C)O1", "note": "[Dox 5a, doxorubicin, reference compound]", "values": [{"measurement": "loss of cell viability compared with irradiated 1a + TCO-Dox 3c mixture", "setting": "[1]; direct treatment with Dox 5.5 μM, same conditions", "value": "similar"}]}, {"smiles": "COc1cccc2c1C(=O)c1c(O)c3c(c(O)c1C2=O)C[C@@](O)(C(=O)CO)C[C@@H]3O[C@H]1C[C@H](NC(=O)OC2/C=C/CCCCC2)[C@H](O)[C@H](C)O1", "note": "(some centres unmarked) [TCO-Dox 3c]", "values": [{"measurement": "influence on cell viability, agent alone", "setting": "[1]", "value": "no influence on cell viability"}, {"measurement": "influence on cell viability, agent alone with irradiation", "setting": "[1]", "value": "no influence on cell viability"}]}]}
